This is an account of results in patent US7544657B2, “Stabilized Exendin-4 compounds” (Zealand Pharma A/S, priority 2002, dated 2009).

For one test, the system named is db/db mice. Put plainly: Oral glucose tolerance test (OGTT). In kind it is in vivo. The following applies: OGTT in db/db mice, compound i.p. 15 min before oral glucose 1 g/kg, ED50 based on curve fits of AUC0-240 min. The method, then: Oral Glucose Tolerance Test (OGTT)
The anti diabetic effect of the present compounds was tested in an oral glucose tolerance test (OGTT). In short, animals were fasted over night, and blood samples were taken from the tip of the tail and the blood glucose measured. The whole blood glucose (mM) concentration was analysed by the immobilised glucose oxidase method using a drop of blood (<5 μl; Elite Autoanalyser, Bayer, Denmark) following the manufacturer's manual. The animals were kept fasted throughout the test. Immediately after the initial blood sample (fasting blood glucose level) test compound or vehicle was administered i.p. Fifteen minutes later an oral dose of glucose ((1 g/kg) Sigma, St. Louis, Mo., U.S.A.)), dissolved in phosphate buffer (pH=7.40) was given, and the animals were returned to their home cages (time=0). […] To analyse the effects of the test compounds on oral glucose tolerance the absolute difference in BG from baseline (fasting BG) was calculated for each time point. The area under the curve (AUC) (FIG. 1-8) for the whole experiment (AUC0-120 min) or (AUC0-240 min) was determined using the trapezoid method. Before starting the experimental series an OGTT was used to stratify animals into groups of 9-10 animals displaying similar glucose tolerances in all groups. Animals displaying excessive glucose excursion 30 min after glucose loading (BG>33 mmol/l) were excluded from the study.

The test system of a further test is diabetic db/db mice. The settings on record: given systemically; cited from earlier work.
Setting [1] is: Table 2, another set of experiments.

In the case of “Compound 2: Stabilized derivative of Compound 1 (SEQ ID NO: 2), obtained by exposing Compound 1 to H2O2 (HGEGTFTSDLSKQMEEEAVRLFIEWLKDGGPSSGAPPSKKKKKK)”, the ED50 in the test with db/db mice (setting [1]) turned out to be 0.011 nmol/kg. In turn, “Compound 5: Stabilized derivative of Compound 1 (SEQ ID NO: 5), formed by incubation in NH4HCO3 pH 7.9 at 40° C. (HGEGTFTSDLSKQMEEEAVRLFIEWLKDGGPSSGAPPSKKKKKK)” gave an ED50 in the test with db/db mice (setting [1]) of 0.043 nmol/kg. In turn, “Compound 6: Stabilized derivative of Compound 1 (SEQ ID NO: 6), formed by incubation in NH4HCO3 pH 7.9 at 40° C. (HGEGTFTSDLSKQMEEEAVRLFIEWLKDGGPSSGAPPSKKKKKK)” displayed an ED50 in the test on db/db mice (Table 1) of 0.013 nmol/kg. Consider “Compound 14: Stabilized derivative of Compound 1 (SEQ ID NO: 14), formed by incubation in NH4HCO3 pH 7.9 at 40° C. (HGEGTFTSDLSKQMEEEAVRLFIEWLKDGGPSSGAPPSKKKKKK)”, for which, in the test with db/db mice (Table 1), the ED50 is listed as 0.55 nmol/kg. As to Exendin-4, in the test with diabetic db/db mice, the “lowering of blood glucose levels” value is recorded as 40%. Consider “des Pro^36 Exendin-4 (1-39)-K6 [Compound 1]”, for which the ED50 was 0.049 nmol/kg in the test with db/db mice (Table 1) and 0.073 nmol/kg with db/db mice (setting [1]).

Usually ED50 stands for the dose that gives a 50% effect, or the effect in half of the subjects. The low end stands for greater potency, the high end for weaker potency.
